Target: T1, human factor XIIIa (FXIIIa) (Homo sapiens, UniProt P00488)
T1 construct: gene F13A1
T1 sequence (P00488 39-732): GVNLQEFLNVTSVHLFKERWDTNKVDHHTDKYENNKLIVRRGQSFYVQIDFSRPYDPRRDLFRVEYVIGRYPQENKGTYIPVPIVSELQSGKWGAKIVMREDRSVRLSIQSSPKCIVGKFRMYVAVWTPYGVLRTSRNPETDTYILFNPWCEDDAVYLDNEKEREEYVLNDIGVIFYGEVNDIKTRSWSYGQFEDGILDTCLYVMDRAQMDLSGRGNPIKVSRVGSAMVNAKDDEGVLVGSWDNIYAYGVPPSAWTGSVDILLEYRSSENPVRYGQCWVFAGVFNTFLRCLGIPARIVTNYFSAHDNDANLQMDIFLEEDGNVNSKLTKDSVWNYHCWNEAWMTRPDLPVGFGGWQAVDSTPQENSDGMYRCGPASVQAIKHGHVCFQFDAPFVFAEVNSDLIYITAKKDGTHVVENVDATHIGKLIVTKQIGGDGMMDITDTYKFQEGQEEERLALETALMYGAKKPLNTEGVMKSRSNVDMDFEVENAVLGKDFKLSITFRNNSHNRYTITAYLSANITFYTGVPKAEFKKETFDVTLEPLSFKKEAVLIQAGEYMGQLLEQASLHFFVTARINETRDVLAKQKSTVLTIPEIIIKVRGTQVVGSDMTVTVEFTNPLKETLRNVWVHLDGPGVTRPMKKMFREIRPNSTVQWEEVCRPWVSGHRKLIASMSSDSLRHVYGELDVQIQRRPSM
Assay: bisubstrate fluorescence trans-glutamination assay (dansylcadaverine / N,N-dimethylcasein)
Format: biochemical

- IC50: 106 ± 32.5 µM
SMILES: C=C(CC)C(=O)c1ccc(OCC(=O)O)c(Cl)c1Cl [compound 1, Ethacrynic acid]

Reference: article PMC9158266, “Ethacrynic acid is an inhibitor of human factor XIIIa” (BMC Pharmacology & Toxicology, 2022)
